Data on ten molecules can be found in article PMC4482410, “A Peptide Mimetic of 5-Acetylneuraminic Acid-Galactose Binds with High Avidity to Siglecs and NKG2D” (PLoS ONE, 2015).

Entries after “also recorded” stand apart in the source; their conditions may differ. Where no end group is shown, it is not given here. The star is where a group is joined. Biotin = O=C1N[C@H]2[C@H](CS[C@H]2CCCCC(=O)*)N1

One experiment has as its system Siglec-2. The following applies: ref Kelm et al. [68], cited from earlier work. The source says:
Most siglecs are inhibitory receptors containing an ITIM [9–12] and express full activity when a ligand is bound. As documented with Siglec-2 on B cells, a functional ligand binding site is required for tyrosine phosphorylation, recruitment of the phosphatase SHP-1, and inhibition of B cell activation.

The test system of experiment [1] is lectins that bind monosaccharides. As to conditions: Neu5Ac, Gal, GalNAc or fucose lectins; ref [29],[30]; cited from earlier work. The source says: We initially identified several sequences of amino acids that bound to specific plant lectins by screening phage display libraries. Sequences were further refined by in silico modeling of docking of a peptide into the sugar binding site of the crystal structures of lectins. These studies predicted that several short peptide sequences, 5 to 8 amino acids in length, would have significant affinity to lectins chosen as analogs of cell-surface receptors. […] MAA is a mixture of M. amurensis leukoagglutinin (MAL) and M. amurensis hemagglutinin (MAH), both of which along with SNA1 bind preferentially to terminal Neu5Ac-Gal- sequences on complex glycans. Binding of the peptide to several lectins specific for monosaccharides was not detected. We then assayed binding of svH1C to several siglecs, which comprise a family of cell-surface receptors that are specific for Neu5Ac-Gal/GalNAc- sequ ...

Experiment [2] concerns siglecs. As to the kind of experiment: solid-phase binding of biotinylated tetravalent peptides to siglecs. The arrangement: species or system human. As to conditions: biotinylated peptides 2 μM. As to the method: (§1) Isothermal microcalorimetry was performed by TA Instruments Professional Services (New Castle, DE) by titrating 10 μM NKG2D (monomer concentration) (R&D Systems, Inc., Minneapolis, MN) with 100 μM svH1C in 50 mM Tris-HCl, pH 7.5, 150 mM NaCl, 0.1 mM EDTA. Recombinant human receptors were obtained from R&D Systems as chimeric proteins. NKG2D is a type II transmembrane protein and the extracellular lectin-type domain was fused at the N-terminus with a human IgG1 Fc domain. Recombinant siglecs contained a C-terminal IgG1 Fc domain or a His6–10 tag. The lyophilized proteins were reconstituted in phosphate-buffered saline, pH 7.2 (PBS), to 100 μg/mL. The Fc-chimeric proteins were bound to protein A/G-coated wells of microtiter plates (Pierce Biotechnology). His-tagged proteins were bound in Nickel-coated plates (Pierce Biotechnology). Sufficient proteins were added to wells to saturate the binding capacity of the wells. After a wash to remove unbound receptor, wells were blocked with 1% gelatin in wash buffer. Wash buffers were either 10 mM phosphate, pH 7.2; 10 mM HEPES, pH 7.4; or 50 mM Tris-HCl, pH.7.5, each in 150 mM NaCl containing 0.05% Tween-20. Biotinylated peptides were prepared as 2 μM solutions in the wash buffer and 50 μL (100 pmoles) were added to each well and incubated at room temperature for one hour. After four washes with 350 μL buffer containing 0.05% Tween-20, each assay was incubated with 50 μL of 1 μg/mL streptavidin-peroxidase (Sigma-Aldrich, St. Louis, MO). […] Absorbance was measured at 450 nm and converted to the amount of streptavidin-peroxidase bound with the specific activity of the conjugate determined under the conditions of the assay. […]
MAA is a mixture of M. amurensis leukoagglutinin (MAL) and M. amurensis hemagglutinin (MAH), both of which along with SNA1 bind preferentially to terminal Neu5Ac-Gal- sequences on complex glycans. Binding of the peptide to several lectins specific for monosaccharides was not detected. […]

The next experiment deals with CD45 (Homo sapiens) (UniProt P08575). The following applies: cited from earlier work.
For the next experiment, the system named is plant lectins. The following applies: ref [29]; cited from earlier work. The source says: NKG2D is a homodimeric, type II receptor whose recognized ligands are cell-surface proteins MICA and MICB, which are major histocompatibility complex class I homologs. Other polypeptide ligands include ULBP, Rae-1 and H60 [26]. Extensive studies of binding of MICA and MICB [24–26] have shown that each homodimer binds a single ligand at the interface of the subunits. Each subunit of NKG2D also contains a lectin domain that binds glycans with specificity for Neu5Ac(α2,3)Gal. […] Binding was inhibited by fet ...

Experiment [3] concerns siglecs. As to the kind of experiment: inhibition of binding of svH1C to siglecs. On the set-up: species or system human. As to conditions: fetuin 10 μM or 30 μM; average of single values in two assays. As to the method: as §1, with “buffer.” for “buffer. Wash buffers were either 10 mM phosphate, pH 7.2; 10 mM HEPES, pH 7.4; or 50 mM Tris-HCl, pH.7.5, each in 150 mM NaCl containing 0.05% Tween-20. Biotinylated peptides were prepared as 2 μM solutions in the wash buffer and 50 μL (100 pmoles) were added to each well and incubated at room temperature for one hour. After four washes with 350 μL buffer containing 0.05% Tween-20, each assay was incubated with 50 μL of 1 μg/mL streptavidin-peroxidase (Sigma-Aldrich, St. Louis, MO).”
Fig 3 Binding of svH1C to lectin-type receptors. […] SEM was determined for six assays from four independent experiments. […]

Experiment [4] deals with T1, NKG2D (Homo sapiens, UniProt P26718).
T1 construct: the extracellular lectin-type domain was fused at the N-terminus with a human IgG1 Fc domain; purchased R&D Systems, Inc., Minneapolis, MN
T1 sequence (P26718 73-216 limits assumed): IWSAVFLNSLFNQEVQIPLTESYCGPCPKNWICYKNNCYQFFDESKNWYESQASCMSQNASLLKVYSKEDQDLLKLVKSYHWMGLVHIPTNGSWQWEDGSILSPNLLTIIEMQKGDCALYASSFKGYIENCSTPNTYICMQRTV
The experiment can be described thus: inhibition of binding of svH1C to NKG2D. The following applies: added with 2 μM svH1C; PBS/0.05% Tween-20; average of single values from three separate assays; fetuin 5, 10, 30 μM; sialyllactose 12, 20, 40 μM. How it is done:
as §1, with “buffer.” for “buffer. Wash buffers were either 10 mM phosphate, pH 7.2; 10 mM HEPES, pH 7.4; or 50 mM Tris-HCl, pH.7.5, each in 150 mM NaCl containing 0.05% Tween-20. Biotinylated peptides were prepared as 2 μM solutions in the wash buffer and 50 μL (100 pmoles) were added to each well and incubated at room temperature for one hour. After four washes with 350 μL buffer containing 0.05% Tween-20, each assay was incubated with 50 μL of 1 μg/mL streptavidin-peroxidase (Sigma-Aldrich, St. Louis, MO).”
Fig 4 Binding of svH1C to NKG2D. (A) The amount of bound peptide was measured after extensive washing with PBS containing 0.05% Tween-20. […]

Experiment [5] deals with T2, recombinant human NKG2D, Fc chimera (human, UniProt P26718 73-216).
T2 construct: NKG2D, human, extracellular lectin-type domain; Type II transmembrane protein; source: bought: R&D Systems; not shown: Fc (human IgG1), N-terminal, kept
T2 sequence (looked up): T1 sequence (P26718 73-216 limits assumed)
As to the kind of experiment: ELISA; inhibition: fetuin (5, 10 or 30 μM) added along with 2 μM biotinylated svH1C to immobilised receptor; PBS with 0.05% Tween-20.

The target in experiment [6] is NKG2D. The following applies: approximately; ref [24]–[26]; cited from earlier work. As to the method:
NKG2D lacks a signaling motif in its cytoplasmic domain and functions as an activating receptor in association with adaptor proteins, DAP10 and DAP12 [75]. In addition to NKG2D, NK cells express other activating cytotoxicity receptors such as NKp30, NKp44 and NKp46. These receptors bind to tandemly multivalent heparan sulfate/heparin sequences with KD values of 0.3 to 2 μM [76]. Similarly to NKG2D, NKp46 also binds multivalent sialyl-Lewis^X with a KD of approximately 0.6 μM [77]. The native in vivo ligands for NKG2D are divergent proteins, MIC-A/B, ULBP, Rae-1 or H60, which bind the rec ...

Sequence of CD45 (Homo sapiens) (P08575 26-577): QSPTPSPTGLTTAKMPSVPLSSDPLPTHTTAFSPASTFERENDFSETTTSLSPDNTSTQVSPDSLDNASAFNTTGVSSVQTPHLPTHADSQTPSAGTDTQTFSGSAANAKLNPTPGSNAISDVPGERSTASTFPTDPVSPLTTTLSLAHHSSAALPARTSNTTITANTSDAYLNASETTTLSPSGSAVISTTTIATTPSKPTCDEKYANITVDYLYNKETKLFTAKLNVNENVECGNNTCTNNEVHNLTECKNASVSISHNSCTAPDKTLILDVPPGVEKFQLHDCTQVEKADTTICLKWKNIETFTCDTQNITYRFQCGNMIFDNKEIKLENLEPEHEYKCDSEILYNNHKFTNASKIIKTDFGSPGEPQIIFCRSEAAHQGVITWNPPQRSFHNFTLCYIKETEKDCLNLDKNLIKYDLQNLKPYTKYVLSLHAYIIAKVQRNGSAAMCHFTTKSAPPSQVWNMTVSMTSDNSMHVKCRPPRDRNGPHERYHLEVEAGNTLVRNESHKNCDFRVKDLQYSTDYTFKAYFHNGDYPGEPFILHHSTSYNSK

Turning to `CO[C@]1(C(=O)O)C[C@H](O)[C@@H](NC(C)=O)[C@H]([C@H](O)[C@H](O)CNC(=O)c2ccc(-c3ccccc3)cc2)O1` [BPC-Neu5Ac], the IC50 in the experiment with Siglec-2 (after cells were treated with neuraminidase) was 4 µM. The “tyrosine phosphorylation and inhibitory activity of Siglec-2” value with Siglec-2 was “reduced tyrosine phosphorylation and attenuated the receptor’s inhibitory activity”.
Consider HPSLK [sv6B], for which the “avidity to lectins that bind monosaccharides, relative to natural ligands” value in experiment [1] is “several orders of magnitude greater than their natural ligands”. Besides, the “binding of biotinylated tetravalent peptides to siglecs” value in the experiment with siglecs [2] is “also bound to siglecs”.
For the molecule Siglec-2 (CD22) (from UniProt P20273), in the experiment with CD45 (Homo sapiens), the Kd was 117 µM.
As to “[(VGGGSGGGS)2K]2K-ε-biotinyl-K-NH2 [peptide used as a negative control, reference compound]”, the “binding of biotinylated tetravalent peptides to siglecs” value in the experiment on siglecs [2] is reported as “no binding”.
For “digestion of fetuin with neuraminidase: fetuin digested with neuraminidase”, the “competition with svH1C for binding to plant lectins” value in the experiment on plant lectins is “nearly eliminated its ability to inhibit binding”.
As to “fetuin: fetal bovine fetuin (purity, 88%; cat. no. 341506, Calbiochem)”, the “competition with svH1C for binding to plant lectins” value in the experiment with plant lectins is “effectively competed”. For the same molecule, in the experiment on siglecs [3], the “inhibition of binding of svH1C to siglecs by fetuin” value was “inhibited; also recorded: as effective an inhibitor of binding of svH1C to NKG2D as it was of the binding of the peptide to siglecs”.
As for sialyllactose [reference compound], the IC50 on NKG2D [4] was roughly 18 µM.

B1: fetal bovine fetuin (natural protein, UniProt P12763 19-359, looked up)
chain: IPLDPVAGYKEPACDDPDTEQAALAAVDYINKHLPRGYKHTLNQIDSVKVWPRRPTGEVYDIEIDTLETTCHVLDPTPLANCSVRQQTQHAVEGDCDIHVLKQDGQFSVLFTKCDSSPDSAEDVRKLCPDCPLLAPLNDSRVVHAVEVALATFNAESNGSYLQLVEISRAQFVPLPVSVSVEFAVAATDCIAKEVVDPTKCNLLAEKQYGFCKGSVIQKALGGEDVRVTCTLFQTQPVIPQPQPDGAEAEAPSAVPDAAGPTPSAAGPPVASVVVGPSVVAVPLPLHRAHYDLRHTFSGVASVESSSGEAFHVGKTPIVGQPSIPGGPVRLCPGRIRYFKI
modifications: three N-linked and three O-linked glycans per molecule, with termini Neu5Ac(α2,3)Gal or Neu5Ac(α2,6)Gal
notes: fetuin, fetal bovine; source: bought: Calbiochem, EMD Chemicals (purity, 88%)
B1: the IC50 in experiment [5] (both partners purified) is roughly 3 µM.

B2: svH1C, biotin-tagged tetravalent peptide [(…)2K]2K-ε-biotinyl-K-NH2 (peptide)
chain 1: NPSHPLSGGGGS
chain 2: KKKK(Biotin)-NH2
modifications: also: tetravalent branched: four NPSHPLSGGGGS arms on tri-lysine core joined by peptide and iso-peptide bonds
Consider B2, for which, in experiment [5], the binding constant estimated from the inhibition by fetuin is 1 µM and the streptavidin-peroxidase conjugate bound (average 100% value, without inhibitor) worked out at 2.4 ng.

B3: MIC-A/B: native in vivo ligands for NKG2D; major histocompatibility complex class I homologs (protein, UniProt Q29983 24-383; Q29980 23-383, looked up)
MHC class I … 1: EPHSLRYNLTVLSWDGSVQSGFLTEVHLDGQPFLRCDRQKCRAKPQGQWAEDVLGNKTWDRETRDLTGNGKDLRMTLAHIKDQKEGLHSLQEIRVCEIHEDNSTRSSQHFYYDGELFLSQNLETKEWTMPQSSRAQTLAMNVRNFLKEDAMKTKTHYHAMHADCLQELRRYLKSGVVLRRTVPPMVNVTRSEASEGNITVTCRASGFYPWNITLSWRQDGVSLSHDTQQWGDVLPDGNGTYQTWVATRICQGEEQRFTCYMEHSGNHSTHPVPSGKVLVLQSHWQTFHVSAVAAAAIFVIIIFYVRCCKKKTSAAEGPELVSLQVLDQHPVGTSDHRDATQLGFQPLMSDLGSTGSTEGA
MHC class I … 2: AEPHSLRYNLMVLSQDGSVQSGFLAEGHLDGQPFLRYDRQKRRAKPQGQWAENVLGAKTWDTETEDLTENGQDLRRTLTHIKDQKGGLHSLQEIRVCEIHEDSSTRGSRHFYYDGELFLSQNLETQESTVPQSSRAQTLAMNVTNFWKEDAMKTKTHYRAMQADCLQKLQRYLKSGVAIRRTVPPMVNVTCSEVSEGNITVTCRASSFYPRNITLTWRQDGVSLSHNTQQWGDVLPDGNGTYQTWVATRIRQGEEQRFTCYMEHSGNHGTHPVPSGKALVLQSQRTDFPYVSAAMPCFVIIIILCVPCCKKKTSAAEGPELVSLQVLDQHPVGTGDHRDAAQLGFQPLMSATGSTGSTEGT
As to B3, the equilibrium dissociation constant (Kd) on NKG2D [6] was roughly 1 µM.
